The CheMixHub viscosity set

Test: xn = mol fraction of the nth substance listed

Cc1ccc(C)cc1 + C1CCOC1
303.15 K, 101.33 kPa
Details | viscosity [mPa·s]
x2 = 0.1057 | 0.564
x2 = 0.2037 | 0.557
x2 = 0.2809 | 0.552
x2 = 0.4052 | 0.544
x2 = 0.5256 | 0.53
x2 = 0.6045 | 0.518
x2 = 0.7062 | 0.501
x2 = 0.8021 | 0.485
x2 = 0.9001 | 0.462

CCCCCCCCCCCCO + CCCCCCCCCCCO
viscosity [mPa·s], 101.8 kPa
Details | x2 = 0.105 | x2 = 0.3165 | x2 = 0.5196 | x2 = 0.7165 | x2 = 0.9076
298.15 K | 16.69 | 16.05 | 15.53 | 15 | 14.51
308.15 K | 11.29 | 10.91 | 10.58 | 10.23 | 9.905
318.15 K | 7.895 | 7.633 | 7.418 | 7.19 | 6.977

OCCOCCO + CC(C)=O
298.1 K, 101 kPa
Details | viscosity [mPa·s]
x1 = 0.2 | 0.682
x1 = 0.4 | 1.669
x1 = 0.5 | 2.655
x1 = 0.6 | 4.301
x1 = 0.8 | 11.1

c1ccc(Nc2ccccc2)cc1 + CO
viscosity [mPa·s]
Details | 298.15 K | 303.15 K | 308.15 K | 313.15 K | 318.15 K
101 kPa, x1 = 0.03649 | 0.814 | 0.739 | 0.6818 | 0.6313 | 0.584
101 kPa, x1 = 0.06942 | 1.012 | 0.9262 | 0.8495 | 0.7809 | 0.7151
101.33 kPa, x1 = 0.04 | 0.814 | 0.739 | 0.6818 | 0.6313 | 0.584
101.33 kPa, x1 = 0.0694 | 1.012 | 0.9262 | 0.8495 | 0.7809 | 0.7151

Cc1ccc(C)cc1 + CCCCCO
293.15 K, 101.33 kPa
Details | viscosity [mPa·s]
x2 = 0.1458 | 0.727
x2 = 0.2275 | 0.792
x2 = 0.2722 | 0.836
x2 = 0.3455 | 0.925
x2 = 0.4093 | 1.022
x2 = 0.4819 | 1.164
x2 = 0.5534 | 1.356
x2 = 0.6142 | 1.543
x2 = 0.7185 | 1.973
x2 = 0.7687 | 2.232
x2 = 0.8498 | 2.747
x2 = 0.9425 | 3.494

CC(O)C(C)O (stereo unspecified) + CN(C)C=O
308.15 K, 101 kPa
Details | viscosity [mPa·s]
x1 = 0.0509 | 0.724
x1 = 0.1003 | 0.859
x1 = 0.1898 | 1.033
x1 = 0.2855 | 1.36
x1 = 0.3729 | 1.788
x1 = 0.4785 | 2.544
x1 = 0.5949 | 5.332
x1 = 0.6808 | 8.504
x1 = 0.7219 | 10.79
x1 = 0.8883 | 24.97
x1 = 0.942 | 34.78

Cc1ccc(C)cc1 + Cc1ccccc1
Details | viscosity [mPa·s]
293.15 K, 101.33 kPa, x2 = 0.1516 | 0.636
293.15 K, 101.33 kPa, x2 = 0.3137 | 0.624
293.15 K, 101.33 kPa, x2 = 0.6003 | 0.6
293.15 K, 101.33 kPa, x2 = 0.8519 | 0.588
298.15 K, 101 kPa, x1 = 0.1 | 0.5595
298.15 K, 101 kPa, x1 = 0.2 | 0.565
298.15 K, 101 kPa, x1 = 0.3 | 0.5703
298.15 K, 101 kPa, x1 = 0.4 | 0.5756
298.15 K, 101 kPa, x1 = 0.5 | 0.5807
298.15 K, 101 kPa, x1 = 0.6 | 0.5857
298.15 K, 101 kPa, x1 = 0.7 | 0.5907
298.15 K, 101 kPa, x1 = 0.8 | 0.5955
298.15 K, 101 kPa, x1 = 0.9 | 0.6001
303.15 K, 101.33 kPa, x2 = 0.1516 | 0.56
303.15 K, 101.33 kPa, x2 = 0.3137 | 0.547
303.15 K, 101.33 kPa, x2 = 0.6003 | 0.532
303.15 K, 101.33 kPa, x2 = 0.8519 | 0.526
313.15 K, 101.33 kPa, x2 = 0.1516 | 0.509
313.15 K, 101.33 kPa, x2 = 0.3137 | 0.5
313.15 K, 101.33 kPa, x2 = 0.6003 | 0.491
313.15 K, 101.33 kPa, x2 = 0.8519 | 0.47
323.15 K, 101.33 kPa, x2 = 0.1516 | 0.459
323.15 K, 101.33 kPa, x2 = 0.3137 | 0.45
323.15 K, 101.33 kPa, x2 = 0.6003 | 0.437
323.15 K, 101.33 kPa, x2 = 0.8519 | 0.423

O=C(O)CCC(=O)O + CCCCO
101 kPa
Details | viscosity [mPa·s]
308.15 K, x1 = 0.0162 | 2.167
313.15 K, x1 = 0.0162 | 1.91
318.15 K, x1 = 0.0162 | 1.704
318.15 K, x1 = 0.017 | 1.704
318.15 K, x1 = 0.035 | 1.848
318.15 K, x1 = 0.0435 | 1.943
318.15 K, x1 = 0.047 | 1.943
323.15 K, x1 = 0.0162 | 1.51
323.15 K, x1 = 0.0435 | 1.726
